In patent publication US7429396B2, “Antifungal composition, its fungicidal effect on pathogenic dermatophytes, and process for inhibiting growth of fungi” (Bio-Botanica, Inc., priority 2003, dated 2008):

Key:
Assay type in all cases: cell-based
[1] = system: all organisms (Epidermophyton floccosum, Trichophyton mentagrophytes, Microsporum canis); assay: Macrodilution broth MIC/MFC, all dermatophytes tested (Example 4); conditions: for MIC: all dermatophytes
Method: (§1) The organisms used included Epidermophyton floccosum ATCC 52066, Trichophyton mentagrophytes ATCC 9533, and Microsporum canis ATCC 36299. The molds were cultured on Oatmeal Agar slants to allow for conidial formation and incubated for 7 days at 25° C. For each mold, 5 ml of sterile 0.85% NaCl was added to each slant, the culture surface was rubbed with a sterile wooden applicator stick, and the suspension was then transferred to a sterile tube. By comparison to the McFarland 0.5 turbidity standard, the suspension was adjusted by adding sterile 0.85% NaCl as necessary. The resulting suspension was c.1×10^8 CFU/ml. Then 300 μl of organism suspension was added to 10 ml of sterile saline, diluting it to c.1×10^6 CFU/ml.
(§2) The Macrodilution broth method was performed using serial two-fold dilutions of RPMI-1640 (Sigma) with L-glutamine but without sodium bicarbonate.
(§3) Six 18×150 tubes of RPMI-1640 were used for each organism tested. Starting with tube 1 containing 20 ml RPMI labeled as 0.250 μl/ml and then tubes 2 through 6 containing 10 ml RPMI labeled as 0.125 μl/ml, 0.06 μl/ml, 0.03 μl/ml, 0.015 μl/ml, and 0.008 μl/ml respectively. • 1. 26 μl of each product of Examples 1-3 was added to 1000 μl DMSO. The final concentration of DMSO is kept below 1%. • 2. 200 μl of the sample dilution (26 μl/ml) was added to tube 1 (20 ml of RPMI-1640) making an initial concentration of 0.250 μl/ml. • 3. A serial dilution was performed, pipetting 10 ml from tube 1 to tube 2; continuing the dilution to tube 6.
(§4) For the Clotrimazole, Mycelex® and Ciclopirox Olamine, ten 18×150 tubes of RPMI-1640 were used for each organism tested. Starting with tube 1 containing 20 ml RPMI labeled 16 μg/ml and then tubes 2 through 10 containing 10 ml RPMI labeled as 8.0 μg/ml, 4.0 μg/ml, 2.0 μg/ml, 1.0 μg/ml, 0.50 μg/ml, 0.25 μg/ml, 0.125 μg/ml, 0.06 μg/ml and 0.03 μg/ml respectively. • 1. 160 mg of active ingredient was added to 100 ml DMSO. • 2. 200 μl of the sample dilution (1600 μg/ml) was added to tube 1 (20 ml of RPMI-1640) making an initial concentration of 16 μg/ml. • 3. A serial dilution was performed, pipetting 10 ml from tube 1 to tube 2; continuing the dilution to tube 10. Inoculation and Incubation
(§5) Once the tubes were arranged according to product, concentration and mold type, 300 μl of appropriate mold inoculum was added to each tube and the tubes were then placed in an incubator at 35° C. along with a purity plate for inoculum verification for each mold. The final mold inoculum level was c.1×10^4 CFU/ml. As controls, one tube with 10 ml RPMI was used for the “Negative Control”, and 3 tubes with 10 ml RPMI plus 300 μl mold inoculum were used for the positive controls (one for each mold).
(§6) Final results were recorded after 7 days. Growth (G) was noted when there was full growth visible (i.e. the tube appeared as cloudy as the positive control tube). Partial activity (P) was recorded when the broth in the tube was less turbid than the positive control tube. No growth (I) was recorded when there was total inhibition and the broth in the tube appeared clear (in comparison with the negative control tube).
(§7) The MIC measures fungistatic activity as the lowest concentration that will inhibit growth of the mold. […] The MIC for an azole is the lowest concentration capable of inhibiting 80% growth, which would be a result of partial inhibition (P), one dilution below full inhibition.
(§8) The MFC measures the lowest concentration of the test agent that will kill the fungi. The fungicidal activity of the products was determined by subculturing 20 μl from tubes with no visible growth onto properly labeled SDA plates. Also 20 μl from the last tube with growth and 20 μl from the positive control tube were subcultured as controls. All plates were incubated at 25° C. for 14 days. The MFC was recorded as the lowest concentration showing no growth or <3 colonies of growth, which equals 99-99.5% killing activity.

[2] = system: Microsporum canis ATCC 36299; assay: Macrodilution broth MIC/MFC test on dermatophytes (Example 4); conditions: for MIC: Microsporum canis, ATCC36299, read-out: Minimum Inhibitory Concentration (MIC)
Method: as §1, §2, §3, §4, §5, §6, §7, §8

[3] = system: Trichophyton mentagrophytes ATCC 9533; assay: as above; conditions: for MIC: Trichophyton mentagrophytes, ATCC9533, read-out: Minimum Inhibitory Concentration (MIC)
Method: as §1, §2, §3, §4, §5, §6, §7, §8

[4] = system: Epidermophyton floccosum ATCC 52066; assay: as above; conditions: for MIC: Epidermophyton floccosum, ATCC52066, read-out: Minimum Inhibitory Concentration (MIC)
Method: as §1, §2, §3, §4, §5, §6, §7, §8

Cc1cc(C2CCCCC2)n(O)c(=O)c1 [Ciclopirox Olamine]
I: growth score, MIC test ([2]; 8.0 μg/ml) | growth score, MIC test ([2]; 16.0 μg/ml) | growth score, MIC test ([3]; 16.0 μg/ml) | growth score, MIC test ([4]; 8.0 μg/ml) | growth score, MIC test ([4]; 16.0 μg/ml)
greater than 32 μg/ml: concentration at which still unable to kill the dermatophytes (MFC) [1]
16 µg/mL: MIC [1] | MIC [3]
8 µg/mL: MIC [4]
4 µg/mL: MIC [2]
fungistatic not fungicidal: fungistatic or fungicidal activity [1]
0.0016%: MIC to Inhibit all organisms [1]

Clc1ccccc1C(c1ccccc1)(c1ccccc1)n1ccnc1 [Clotrimazole]
I: growth score, MIC test ([2]; 0.125 μg/ml) | growth score, MIC test ([2]; 0.250 μg/ml) | growth score, MIC test ([2]; 0.50 μg/ml) | growth score, MIC test ([2]; 1.0 μg/ml) | growth score, MIC test ([2]; 2.0 μg/ml) | growth score, MIC test ([2]; 4.0 μg/ml) | growth score, MIC test ([2]; 8.0 μg/ml) | growth score, MIC test ([2]; 16.0 μg/ml) | growth score, MIC test ([3]; 0.125 μg/ml) | growth score, MIC test ([3]; 0.250 μg/ml) | growth score, MIC test ([3]; 0.50 μg/ml) | growth score, MIC test ([3]; 1.0 μg/ml) | growth score, MIC test ([3]; 2.0 μg/ml) | growth score, MIC test ([3]; 4.0 μg/ml) | growth score, MIC test ([3]; 8.0 μg/ml) | growth score, MIC test ([3]; 16.0 μg/ml) | growth score, MIC test ([4]; 0.125 μg/ml) | growth score, MIC test ([4]; 0.250 μg/ml) | growth score, MIC test ([4]; 0.50 μg/ml) | growth score, MIC test ([4]; 1.0 μg/ml) | growth score, MIC test ([4]; 2.0 μg/ml) | growth score, MIC test ([4]; 4.0 μg/ml) | growth score, MIC test ([4]; 8.0 μg/ml) | growth score, MIC test ([4]; 16.0 μg/ml)
0.000006%: MIC to Inhibit all organisms [1]
0.06 µg/mL: MIC [1] | MIC [2] | MIC [3] | MIC [4]
greater than 4 μg/ml: concentration at which still unable to kill the dermatophytes (MFC) [1]
fungistatic not fungicidal: fungistatic or fungicidal activity [1]
